Calls of active or inactive are those of the source.
How the values were obtained:
HEK293 [1] = assay: cells; assay type: functional, cell-based; conditions: Homo sapiens
[2] = Luminescence Cell-Based Dose Retest to Confirm Inhibitors of Cancer Stem Cells. [Related pubchem assays (depositor defined):AID2717, AID2721]; assay type: functional; conditions: Homo sapiens
HEK293 [3] = assay: NOD2 signaling inhibitors in MDP-stimulated cells, cell-based, uHTS, luminescence (AID 2001); assay type: functional; conditions: Homo sapiens
[4] = target: Nucleotide-binding oligomerization domain-containing protein 2 (Homo sapiens, UniProt Q9HC29); assay: inhibition of NOD2-driven NF-kB reporter – cell-based, luminescence, uHTS, HEK293 (AID 1566); assay type: functional
Sequence of Nucleotide-binding oligomerization domain-containing protein 2 (Q9HC29 whole entry, the tested form may be a part): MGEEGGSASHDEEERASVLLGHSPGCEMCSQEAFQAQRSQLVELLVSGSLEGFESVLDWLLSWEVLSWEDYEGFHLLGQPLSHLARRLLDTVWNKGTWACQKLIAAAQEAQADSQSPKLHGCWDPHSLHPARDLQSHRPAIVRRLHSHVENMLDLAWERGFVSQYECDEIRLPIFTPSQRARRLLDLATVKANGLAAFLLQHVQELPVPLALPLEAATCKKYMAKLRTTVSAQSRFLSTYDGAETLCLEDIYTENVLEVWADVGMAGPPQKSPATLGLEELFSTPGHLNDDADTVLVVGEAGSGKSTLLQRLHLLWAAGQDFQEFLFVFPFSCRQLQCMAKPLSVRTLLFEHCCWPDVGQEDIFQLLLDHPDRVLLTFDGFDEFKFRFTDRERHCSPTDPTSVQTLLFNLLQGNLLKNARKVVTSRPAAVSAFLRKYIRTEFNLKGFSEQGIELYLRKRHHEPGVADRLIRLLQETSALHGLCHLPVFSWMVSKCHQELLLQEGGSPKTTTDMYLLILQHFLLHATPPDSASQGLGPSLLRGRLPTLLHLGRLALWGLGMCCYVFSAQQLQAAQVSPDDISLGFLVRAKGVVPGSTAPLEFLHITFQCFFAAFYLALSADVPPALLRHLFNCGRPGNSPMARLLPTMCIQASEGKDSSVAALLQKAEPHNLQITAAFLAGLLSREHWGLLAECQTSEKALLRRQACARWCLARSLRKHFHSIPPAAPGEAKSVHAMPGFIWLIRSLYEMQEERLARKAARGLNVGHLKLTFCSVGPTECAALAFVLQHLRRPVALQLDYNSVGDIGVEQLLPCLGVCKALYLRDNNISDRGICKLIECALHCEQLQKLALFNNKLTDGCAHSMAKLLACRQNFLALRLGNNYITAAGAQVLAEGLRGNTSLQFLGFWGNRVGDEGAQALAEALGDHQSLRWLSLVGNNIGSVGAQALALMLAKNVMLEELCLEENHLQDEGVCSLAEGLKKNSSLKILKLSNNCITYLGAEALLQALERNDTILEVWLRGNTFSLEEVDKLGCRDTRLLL

HEK293 [5] = assay: cells; assay type: functional, cell-based; conditions: Homo sapiens; remark: listed apart in the source
HEK293 [6] = assay: inhibition of NOD1-driven NF-kB reporter – cell-based, luminescence, uHTS, primary screen (AID 1578); assay type: functional; conditions: Homo sapiens
HEK293 [7] = assay: cells; assay type: functional, cell-based; conditions: Homo sapiens; remark: listed apart in the source
H9c2 = assay: cells; assay type: functional, cell-based; conditions: Rattus norvegicus, H9c2, Myocardium;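 also: confirmatory concentration-response retest of ultra-high-throughput screening hits for modulation of myocardial damage; cell death induced by hydrogen peroxide oxidative stress; compound pretreatment for 60 min then peroxide exposure for 2 h; potency is for protecting the cells against peroxide damage rather than for killing them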
[8] = target: T1, Microphthalmia-associated transcription factor (Homo sapiens, UniProt O75030); assay: reducers of TRPM1 reporter luminescence, concentration series – cell-based, SK-MEL-5, cherry-picked, set 3, MITF inhibitor project, dose response (AID 493073); assay type: functional;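 also: SK-MEL-5 melanoma cells with luciferase driven by the MITF target TRPM1 promoter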
T1 sequence (O75030 whole entry): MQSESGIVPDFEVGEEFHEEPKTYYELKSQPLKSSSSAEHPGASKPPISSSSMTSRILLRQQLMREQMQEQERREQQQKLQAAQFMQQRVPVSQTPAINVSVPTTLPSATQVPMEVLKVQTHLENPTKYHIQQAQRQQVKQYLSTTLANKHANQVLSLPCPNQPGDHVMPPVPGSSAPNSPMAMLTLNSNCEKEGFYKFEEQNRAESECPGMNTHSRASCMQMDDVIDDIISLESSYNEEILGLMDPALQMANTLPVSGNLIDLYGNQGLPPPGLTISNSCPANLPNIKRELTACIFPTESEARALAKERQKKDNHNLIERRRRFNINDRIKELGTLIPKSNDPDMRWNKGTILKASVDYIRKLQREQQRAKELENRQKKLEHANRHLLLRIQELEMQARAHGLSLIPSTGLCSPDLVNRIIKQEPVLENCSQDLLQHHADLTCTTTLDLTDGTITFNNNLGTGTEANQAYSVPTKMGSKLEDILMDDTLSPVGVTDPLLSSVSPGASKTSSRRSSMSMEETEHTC

[9] = target: T2, Short transient receptor potential channel 4 (Mus musculus, UniProt Q9QUQ5); assay: calcium entry via TRPC4 opening agents – cell-based, HEK293 TRPC4/mu-opioid, Fluo-4 calcium, dose response (AID 434937); assay type: functional
T2 sequence (Q9QUQ5 whole entry): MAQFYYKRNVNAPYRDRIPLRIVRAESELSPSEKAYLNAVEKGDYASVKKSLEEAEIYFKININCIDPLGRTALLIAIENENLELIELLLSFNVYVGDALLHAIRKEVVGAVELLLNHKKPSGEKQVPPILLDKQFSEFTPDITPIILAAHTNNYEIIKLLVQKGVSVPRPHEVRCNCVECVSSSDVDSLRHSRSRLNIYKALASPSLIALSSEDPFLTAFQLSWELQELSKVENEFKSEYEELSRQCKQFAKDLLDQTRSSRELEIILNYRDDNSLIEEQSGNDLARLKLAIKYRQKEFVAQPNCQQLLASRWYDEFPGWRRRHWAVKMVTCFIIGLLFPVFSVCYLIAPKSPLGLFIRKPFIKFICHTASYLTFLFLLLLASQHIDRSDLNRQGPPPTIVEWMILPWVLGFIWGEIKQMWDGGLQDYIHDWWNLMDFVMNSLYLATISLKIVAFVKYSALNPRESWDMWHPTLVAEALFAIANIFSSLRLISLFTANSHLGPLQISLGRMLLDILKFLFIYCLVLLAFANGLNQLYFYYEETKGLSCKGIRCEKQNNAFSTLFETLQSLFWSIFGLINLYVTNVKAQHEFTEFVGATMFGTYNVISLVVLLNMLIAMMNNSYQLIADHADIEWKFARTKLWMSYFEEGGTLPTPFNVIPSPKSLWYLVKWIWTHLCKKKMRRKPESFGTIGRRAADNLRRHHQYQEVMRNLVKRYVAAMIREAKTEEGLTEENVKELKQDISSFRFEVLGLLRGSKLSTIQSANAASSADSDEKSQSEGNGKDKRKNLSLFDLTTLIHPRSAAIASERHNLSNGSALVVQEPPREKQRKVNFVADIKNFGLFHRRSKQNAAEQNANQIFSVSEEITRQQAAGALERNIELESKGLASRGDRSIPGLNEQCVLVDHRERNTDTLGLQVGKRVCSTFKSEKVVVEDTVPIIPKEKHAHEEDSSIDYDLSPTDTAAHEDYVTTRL

[10] = viability loss in HeLa cells – cytotoxicity control for MgcRacGAP inhibitor project, dose response (AID 624300); assay type: functional
[11] = target: T3, Voltage-gated N-type calcium channel alpha-1B subunit/Amyloid beta A4 precursor protein-binding family A member 1 (Homo sapiens, UniProt Q00975+Q02410); assay type: protein assay
T3 sequence (Q00975 whole entry): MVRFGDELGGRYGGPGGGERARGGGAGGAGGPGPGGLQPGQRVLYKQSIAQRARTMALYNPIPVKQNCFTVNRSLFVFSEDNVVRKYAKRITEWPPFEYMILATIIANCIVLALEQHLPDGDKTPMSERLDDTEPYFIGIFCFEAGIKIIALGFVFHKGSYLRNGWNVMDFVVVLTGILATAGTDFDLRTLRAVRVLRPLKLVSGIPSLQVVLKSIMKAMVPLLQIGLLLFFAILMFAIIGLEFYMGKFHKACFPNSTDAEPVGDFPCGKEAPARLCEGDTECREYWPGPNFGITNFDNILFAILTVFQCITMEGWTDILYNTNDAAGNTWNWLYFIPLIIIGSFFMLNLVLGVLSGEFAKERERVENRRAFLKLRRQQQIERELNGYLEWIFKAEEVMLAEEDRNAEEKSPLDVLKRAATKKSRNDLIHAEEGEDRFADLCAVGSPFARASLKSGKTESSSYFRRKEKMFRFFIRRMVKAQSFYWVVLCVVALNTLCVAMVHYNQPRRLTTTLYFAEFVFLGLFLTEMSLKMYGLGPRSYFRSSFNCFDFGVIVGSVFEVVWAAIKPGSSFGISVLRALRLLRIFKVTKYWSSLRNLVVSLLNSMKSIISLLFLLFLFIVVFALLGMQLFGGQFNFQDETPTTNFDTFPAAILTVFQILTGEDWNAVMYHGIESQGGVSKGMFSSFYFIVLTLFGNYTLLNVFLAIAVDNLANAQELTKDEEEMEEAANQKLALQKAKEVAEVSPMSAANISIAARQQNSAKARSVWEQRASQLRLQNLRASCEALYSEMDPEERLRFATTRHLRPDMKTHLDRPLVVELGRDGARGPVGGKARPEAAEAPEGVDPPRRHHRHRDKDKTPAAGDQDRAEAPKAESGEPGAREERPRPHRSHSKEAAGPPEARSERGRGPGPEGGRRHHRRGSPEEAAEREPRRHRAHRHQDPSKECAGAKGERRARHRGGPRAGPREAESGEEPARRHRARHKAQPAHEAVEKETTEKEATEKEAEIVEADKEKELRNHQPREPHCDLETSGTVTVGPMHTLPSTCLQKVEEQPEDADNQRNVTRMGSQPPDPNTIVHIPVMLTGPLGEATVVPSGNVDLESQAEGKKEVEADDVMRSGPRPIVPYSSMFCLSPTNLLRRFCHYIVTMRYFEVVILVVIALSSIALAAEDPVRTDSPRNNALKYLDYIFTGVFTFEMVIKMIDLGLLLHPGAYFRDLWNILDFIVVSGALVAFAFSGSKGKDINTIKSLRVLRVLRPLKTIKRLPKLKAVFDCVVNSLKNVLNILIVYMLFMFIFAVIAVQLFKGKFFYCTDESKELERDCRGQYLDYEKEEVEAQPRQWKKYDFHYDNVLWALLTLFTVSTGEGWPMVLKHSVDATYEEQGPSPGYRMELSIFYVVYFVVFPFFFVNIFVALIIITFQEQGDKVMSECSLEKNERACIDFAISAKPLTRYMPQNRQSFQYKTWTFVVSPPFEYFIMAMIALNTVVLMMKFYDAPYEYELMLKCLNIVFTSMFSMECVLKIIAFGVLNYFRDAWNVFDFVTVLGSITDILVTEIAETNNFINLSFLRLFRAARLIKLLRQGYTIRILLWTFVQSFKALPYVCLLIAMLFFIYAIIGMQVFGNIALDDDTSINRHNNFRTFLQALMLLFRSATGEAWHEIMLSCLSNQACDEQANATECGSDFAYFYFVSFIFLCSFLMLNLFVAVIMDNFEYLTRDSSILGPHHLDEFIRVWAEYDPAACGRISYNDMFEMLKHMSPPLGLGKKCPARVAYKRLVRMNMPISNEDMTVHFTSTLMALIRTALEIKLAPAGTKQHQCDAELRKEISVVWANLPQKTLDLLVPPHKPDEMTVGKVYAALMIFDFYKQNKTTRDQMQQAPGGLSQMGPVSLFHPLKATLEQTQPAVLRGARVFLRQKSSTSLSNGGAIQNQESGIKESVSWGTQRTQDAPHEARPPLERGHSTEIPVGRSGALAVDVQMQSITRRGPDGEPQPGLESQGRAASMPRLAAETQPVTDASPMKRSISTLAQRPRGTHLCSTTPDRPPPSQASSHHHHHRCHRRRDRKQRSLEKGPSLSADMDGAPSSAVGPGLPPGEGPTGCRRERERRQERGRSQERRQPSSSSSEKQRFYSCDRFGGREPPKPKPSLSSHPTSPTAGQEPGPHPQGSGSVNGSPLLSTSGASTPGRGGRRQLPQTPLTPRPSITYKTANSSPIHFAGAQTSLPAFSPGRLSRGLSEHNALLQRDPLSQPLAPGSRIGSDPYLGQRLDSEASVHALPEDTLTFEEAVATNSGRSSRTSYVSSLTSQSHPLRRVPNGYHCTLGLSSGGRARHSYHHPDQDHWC
T3 sequence (Q02410 whole entry): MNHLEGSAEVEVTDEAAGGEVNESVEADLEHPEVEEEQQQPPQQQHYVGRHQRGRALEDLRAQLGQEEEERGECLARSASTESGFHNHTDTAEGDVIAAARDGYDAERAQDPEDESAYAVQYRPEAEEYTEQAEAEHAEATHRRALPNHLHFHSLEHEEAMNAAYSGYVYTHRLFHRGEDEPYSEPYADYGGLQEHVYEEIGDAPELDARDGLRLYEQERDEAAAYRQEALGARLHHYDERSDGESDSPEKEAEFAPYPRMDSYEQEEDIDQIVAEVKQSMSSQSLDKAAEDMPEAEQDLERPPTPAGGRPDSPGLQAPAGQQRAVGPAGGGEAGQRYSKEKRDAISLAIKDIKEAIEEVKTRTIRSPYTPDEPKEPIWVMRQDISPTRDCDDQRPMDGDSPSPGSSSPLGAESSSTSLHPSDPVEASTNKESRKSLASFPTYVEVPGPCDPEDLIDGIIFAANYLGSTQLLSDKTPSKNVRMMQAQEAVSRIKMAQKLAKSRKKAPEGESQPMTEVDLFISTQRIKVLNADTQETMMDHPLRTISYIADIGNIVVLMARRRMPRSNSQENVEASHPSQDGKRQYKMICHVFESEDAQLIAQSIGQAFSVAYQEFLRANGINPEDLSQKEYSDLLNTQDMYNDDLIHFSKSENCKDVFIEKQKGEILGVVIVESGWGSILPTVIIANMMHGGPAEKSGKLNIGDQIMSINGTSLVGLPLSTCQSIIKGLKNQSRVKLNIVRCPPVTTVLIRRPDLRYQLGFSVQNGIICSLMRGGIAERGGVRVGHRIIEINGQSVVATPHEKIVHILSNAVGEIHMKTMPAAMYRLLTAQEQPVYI

[12] = target: T3, Voltage-gated N-type calcium channel alpha-1B subunit/Amyloid beta A4 precursor protein-binding family A member 1; assay type: protein assay; remark: listed apart in the source
[13] = target: T4, Rac GTPase-activating protein 1 (Homo sapiens, UniProt Q9H0H5); assay: blockers of MgcRacGAP-driven Rac1 GTP hydrolysis – biochemical, ADP Hunter fluorescence, primary and confirmatory, confirmation (AID 624330); assay type: functional
T4 sequence (Q9H0H5 whole entry): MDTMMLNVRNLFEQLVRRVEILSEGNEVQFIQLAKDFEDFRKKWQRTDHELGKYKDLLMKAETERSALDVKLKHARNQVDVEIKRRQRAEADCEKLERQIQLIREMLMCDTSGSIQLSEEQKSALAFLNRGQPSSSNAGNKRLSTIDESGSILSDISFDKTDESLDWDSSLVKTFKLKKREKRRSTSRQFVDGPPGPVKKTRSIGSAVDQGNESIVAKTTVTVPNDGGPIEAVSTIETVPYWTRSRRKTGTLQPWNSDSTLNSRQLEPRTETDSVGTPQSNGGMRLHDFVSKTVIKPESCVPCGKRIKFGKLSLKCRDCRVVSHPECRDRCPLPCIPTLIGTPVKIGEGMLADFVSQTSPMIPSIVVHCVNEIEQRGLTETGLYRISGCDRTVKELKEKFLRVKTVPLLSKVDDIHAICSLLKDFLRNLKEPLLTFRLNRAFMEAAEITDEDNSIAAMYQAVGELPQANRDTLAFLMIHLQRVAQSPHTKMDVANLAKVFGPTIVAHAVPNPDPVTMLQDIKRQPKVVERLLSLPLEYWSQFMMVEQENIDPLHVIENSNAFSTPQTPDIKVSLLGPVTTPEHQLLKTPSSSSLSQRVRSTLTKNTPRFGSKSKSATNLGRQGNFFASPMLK

[14] = target: T5, Eukaryotic translation initiation factor 2-alpha kinase 3 (Homo sapiens, UniProt Q9NZJ5); assay: Counterscreen assay for PERK inhibitors: Dose response cell-based high throughput screening assay to measure inhibition of PERK at 6 hours. [Related pubchem assays: 1522, 1416 ]; assay type: functional
T5 sequence (Q9NZJ5 whole entry): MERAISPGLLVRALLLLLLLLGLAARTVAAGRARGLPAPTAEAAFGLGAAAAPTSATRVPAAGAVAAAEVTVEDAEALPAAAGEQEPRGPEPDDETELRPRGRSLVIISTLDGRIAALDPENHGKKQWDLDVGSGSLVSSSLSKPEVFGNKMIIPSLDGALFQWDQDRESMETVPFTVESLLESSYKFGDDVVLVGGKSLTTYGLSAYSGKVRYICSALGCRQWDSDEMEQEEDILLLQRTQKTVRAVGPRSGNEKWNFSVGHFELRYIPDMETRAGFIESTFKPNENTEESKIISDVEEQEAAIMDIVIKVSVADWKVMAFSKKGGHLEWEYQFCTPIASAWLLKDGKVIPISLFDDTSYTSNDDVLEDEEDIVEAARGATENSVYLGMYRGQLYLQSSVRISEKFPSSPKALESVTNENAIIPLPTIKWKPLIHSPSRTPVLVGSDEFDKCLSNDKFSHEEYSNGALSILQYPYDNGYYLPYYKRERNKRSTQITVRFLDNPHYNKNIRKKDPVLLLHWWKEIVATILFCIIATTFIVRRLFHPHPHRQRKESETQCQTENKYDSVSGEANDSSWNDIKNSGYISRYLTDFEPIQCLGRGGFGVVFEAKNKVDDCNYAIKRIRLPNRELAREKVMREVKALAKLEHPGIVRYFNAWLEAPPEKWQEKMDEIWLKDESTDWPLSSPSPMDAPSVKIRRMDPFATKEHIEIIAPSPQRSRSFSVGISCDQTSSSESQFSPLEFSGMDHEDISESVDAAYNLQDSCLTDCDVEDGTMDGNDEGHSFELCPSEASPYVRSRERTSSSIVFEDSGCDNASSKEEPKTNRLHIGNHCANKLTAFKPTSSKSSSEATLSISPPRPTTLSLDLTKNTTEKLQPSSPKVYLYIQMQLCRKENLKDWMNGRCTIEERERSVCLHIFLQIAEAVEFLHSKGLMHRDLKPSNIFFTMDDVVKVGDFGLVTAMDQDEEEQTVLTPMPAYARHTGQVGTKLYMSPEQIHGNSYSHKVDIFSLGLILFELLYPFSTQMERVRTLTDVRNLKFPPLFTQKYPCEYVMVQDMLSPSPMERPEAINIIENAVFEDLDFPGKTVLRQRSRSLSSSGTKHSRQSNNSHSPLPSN

[15] = target: T6, High affinity choline transporter 1 (Homo sapiens, UniProt Q9GZV3); assay: human choline transporter blockers, potency – cell-based, 10-point CRC, membrane potential dye, dose response (AID 588401); assay type: functional;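 also: membrane potential dye fluorescence of choline-evoked depolarization via CHT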
T6 sequence (Q9GZV3 whole entry): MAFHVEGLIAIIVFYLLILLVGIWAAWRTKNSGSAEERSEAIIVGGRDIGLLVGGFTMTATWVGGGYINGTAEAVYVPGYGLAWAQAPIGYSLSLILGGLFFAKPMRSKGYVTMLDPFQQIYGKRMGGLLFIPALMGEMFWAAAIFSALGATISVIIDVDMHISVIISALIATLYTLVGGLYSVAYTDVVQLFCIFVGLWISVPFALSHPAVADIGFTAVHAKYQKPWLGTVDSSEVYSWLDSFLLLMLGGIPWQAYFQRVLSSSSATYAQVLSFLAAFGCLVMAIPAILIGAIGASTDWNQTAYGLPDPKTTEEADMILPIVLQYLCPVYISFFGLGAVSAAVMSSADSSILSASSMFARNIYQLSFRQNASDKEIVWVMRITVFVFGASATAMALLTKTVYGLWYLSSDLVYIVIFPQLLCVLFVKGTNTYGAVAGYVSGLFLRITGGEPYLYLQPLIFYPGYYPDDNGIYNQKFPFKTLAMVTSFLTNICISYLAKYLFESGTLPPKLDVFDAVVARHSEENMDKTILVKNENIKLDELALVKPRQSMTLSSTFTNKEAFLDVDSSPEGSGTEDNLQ

[16] = target: Luciferin 4-monooxygenase (Photinus pyralis, UniProt P08659); assay: inhibition of purified Photinus pyralis luciferase – biochemical, luminescence, dose response (AID 1891)
Sequence of Luciferin 4-monooxygenase (P08659 whole entry): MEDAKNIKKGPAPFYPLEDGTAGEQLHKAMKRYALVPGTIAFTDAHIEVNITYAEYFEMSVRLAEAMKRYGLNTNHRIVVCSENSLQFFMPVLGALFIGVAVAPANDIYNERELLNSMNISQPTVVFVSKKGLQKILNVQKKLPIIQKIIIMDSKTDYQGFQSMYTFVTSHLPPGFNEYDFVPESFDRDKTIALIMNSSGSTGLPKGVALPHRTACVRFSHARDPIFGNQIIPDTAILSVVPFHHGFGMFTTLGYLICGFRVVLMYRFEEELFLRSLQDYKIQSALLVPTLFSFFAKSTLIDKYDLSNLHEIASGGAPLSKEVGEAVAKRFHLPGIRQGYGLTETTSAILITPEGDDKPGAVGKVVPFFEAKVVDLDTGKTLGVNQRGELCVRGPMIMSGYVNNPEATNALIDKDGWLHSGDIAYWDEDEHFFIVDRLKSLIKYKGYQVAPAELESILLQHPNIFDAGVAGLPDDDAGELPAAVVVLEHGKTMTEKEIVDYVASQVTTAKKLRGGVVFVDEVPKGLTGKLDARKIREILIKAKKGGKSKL

[17] = Luminescence Cell-Based Dose Confirmation HTS to Identify Inhibitors of Platelet Dense Granule Release. [Related pubchem assays: 1663 (Primary HTS), 1678 (Summary of Project)]; assay type: functional
[18] = target: T5, Eukaryotic translation initiation factor 2-alpha kinase 3; assay: Dose response cell-based high-throughput screening assay to measure PERK inhibition. [Related pubchem assays: 1416 ]; assay type: functional
[19] = target: T6, High affinity choline transporter 1; assay: human choline transporter blockers, potency – cell-based, 5-point CRC, membrane potential dye, dose response (AID 504840); assay type: functional
[20] = viability of uninfected HEp-2 cells – cell-based, HTS, cytotoxicity control for RSV inhibitor project, dose response (AID 2410); assay type: functional; conditions: human respiratory syncytial virus

SMILES	IC50 (HEK293 [1])	IC50 (HEK293 [3])	EC50 [4]	IC50 (HEK293 [5])	EC50 (HEK293 [6])	IC50 (HEK293 [7])	IC50 (H9c2)	EC50 [9]	other results
COc1cc(Br)cc(/C=C/c2ccc3cccc(O)c3n2)c1O	> 20 µM (inactive)	6.96 µM (inactive)	> 20 µM (inactive)	> 20 µM (inactive)	5.78 µM (active)	8.18 µM (active)			AC50 [2]: 1.44 µM (active)
COc1ccc2cc3cc(C(=O)NCCc4ccc(OC)c(OC)c4)oc3nc2c1	18.9 µM (active)	5.18 µM (active)	7.83 µM (active)	> 20 µM (inactive)	9.01 µM (active)	4.8 µM (active)	> 79 µM (inactive)		AC50 [8]: 16.2 µM (active)
CCN1CCN(c2ccc(S(=O)(=O)N3CCCCC3)cc2NC(=O)c2cccc(C)c2[N+](=O)[O-])CC1								2.99 µM (active)	
COc1cc(/C=C/c2nc3ccccc3c(=O)n2-c2ccccc2O)ccc1O							9.09 µM (active)		CC50 [10]: 94 µM (active); IC50 [11]: > 56.8 µM (not active); IC50 [12]: > 50 µM (inactive); IC50 [13]: 40.6 µM (active)
Nc1nc(Cl)nc2c1ncn2[C@@H]1O[C@H](CO)[C@@H](O)[C@H]1O									EC50 [14]: > 55.7 µM (not active); IC50 [15]: 0.336 µM (active); EC50 [16]: > 112 µM (not active); EC50 [17]: < 0.701 µM (active); EC50 [18]: > 55.7 µM (not active); IC50 [19]: 0.74 µM (active)
CC(C)(C)c1cc(O)c(C(C)(C)C)cc1O								0.376 µM (active)	IC50 (cells): 37.2 µM (active); CC50 [20]: > 50 µM (active)

— ChEMBL document CHEMBL1201862, “PubChem BioAssay data set” (2004)
